Literature values, collected in patent US20210275440A1, “MICROBEAD COMPOSITIONS AND METHODS FOR DELIVERING AN AGENT” (THE UNIVERSITY OF MEMPHIS RESEARCH FOUNDATION, priority 2016, published 2021).

Conditions: intra-articular administration

## CN[C@H](CC(C)C)C(=O)N[C@H]1C(=O)N[C@@H](CC(N)=O)C(=O)N[C@H]2C(=O)N[C@H]3C(=O)N[C@H](C(=O)N[C@H](C(=O)O)c4cc(O)cc(O)c4-c4cc3ccc4O)[C@H](O)c3ccc(c(Cl)c3)Oc3cc2cc(c3O[C@@H]2O[C@H](CO)[C@@H](O)[C@H](O)[C@H]2O[C@H]2C[C@](C)(N)[C@H](O)[C@H](C)O2)Oc2ccc(cc2Cl)[C@H]1O (atropisomer, axis not shown) [vancomycin]
  half-life: 3 h
  time therapeutic levels in joint and serum were maintained: 24 h
